What was measured:
Ephrin type-A receptor 2 = Ephrin type-A receptor 2 (Homo sapiens, UniProt P29317); test: Inhibition of recombinant human N-terminal His6-tagged EphA2 (N598 to R890 residues) expressed in baculovirus using poly-EY as substrate after 180 mins by luciferase coupled chemiluminescence assay
[1] = target: Vascular endothelial growth factor receptor 2 (Homo sapiens, UniProt P35968); test: Inhibition of recombinant human N-terminal GST-fused KDR (D807 to V1356 residues) expressed in baculovirus infected […] insect Sf9 cells using poly-EY as substrate after 240 mins by luciferase coupled chemiluminescence assay
Ephrin type-B receptor 4 = target: T1, Ephrin type-B receptor 4 (Homo sapiens, UniProt P54760); test: Inhibition of recombinant human N-terminal His6-tagged EphB4 kinase domain (E605 to E890 residues) expressed in baculovirus using poly-AEKY as substrate after 150 mins in presence of gamma33P-ATP by liquid scintillation spectrometry
T1 sequence (P54760 whole entry): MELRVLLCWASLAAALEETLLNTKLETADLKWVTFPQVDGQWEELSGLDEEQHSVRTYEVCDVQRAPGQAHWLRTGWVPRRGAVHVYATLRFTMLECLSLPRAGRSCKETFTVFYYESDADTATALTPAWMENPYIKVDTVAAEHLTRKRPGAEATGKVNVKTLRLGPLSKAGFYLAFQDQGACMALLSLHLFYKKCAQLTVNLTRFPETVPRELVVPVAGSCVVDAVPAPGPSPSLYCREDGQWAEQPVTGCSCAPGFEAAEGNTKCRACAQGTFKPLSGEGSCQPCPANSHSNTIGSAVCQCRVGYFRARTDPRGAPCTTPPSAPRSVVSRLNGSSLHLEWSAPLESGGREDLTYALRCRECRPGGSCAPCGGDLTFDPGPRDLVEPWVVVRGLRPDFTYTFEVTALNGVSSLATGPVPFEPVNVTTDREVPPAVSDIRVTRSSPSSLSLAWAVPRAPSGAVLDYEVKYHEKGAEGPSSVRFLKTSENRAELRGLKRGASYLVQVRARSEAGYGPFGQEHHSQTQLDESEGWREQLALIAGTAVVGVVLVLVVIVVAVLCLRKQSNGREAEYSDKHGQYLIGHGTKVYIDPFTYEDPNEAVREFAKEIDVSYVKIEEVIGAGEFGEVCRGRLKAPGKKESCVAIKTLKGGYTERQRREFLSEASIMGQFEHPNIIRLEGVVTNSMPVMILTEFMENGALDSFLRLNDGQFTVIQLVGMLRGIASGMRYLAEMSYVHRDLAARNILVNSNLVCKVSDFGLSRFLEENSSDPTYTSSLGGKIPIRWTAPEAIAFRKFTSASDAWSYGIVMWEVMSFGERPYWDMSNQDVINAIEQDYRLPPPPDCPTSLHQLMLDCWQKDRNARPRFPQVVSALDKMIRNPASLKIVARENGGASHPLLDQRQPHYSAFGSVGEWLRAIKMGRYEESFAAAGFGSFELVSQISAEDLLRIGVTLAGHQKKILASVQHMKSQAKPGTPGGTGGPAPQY

Sequence of Vascular endothelial growth factor receptor 2 (P35968 whole entry, the tested form may be a part): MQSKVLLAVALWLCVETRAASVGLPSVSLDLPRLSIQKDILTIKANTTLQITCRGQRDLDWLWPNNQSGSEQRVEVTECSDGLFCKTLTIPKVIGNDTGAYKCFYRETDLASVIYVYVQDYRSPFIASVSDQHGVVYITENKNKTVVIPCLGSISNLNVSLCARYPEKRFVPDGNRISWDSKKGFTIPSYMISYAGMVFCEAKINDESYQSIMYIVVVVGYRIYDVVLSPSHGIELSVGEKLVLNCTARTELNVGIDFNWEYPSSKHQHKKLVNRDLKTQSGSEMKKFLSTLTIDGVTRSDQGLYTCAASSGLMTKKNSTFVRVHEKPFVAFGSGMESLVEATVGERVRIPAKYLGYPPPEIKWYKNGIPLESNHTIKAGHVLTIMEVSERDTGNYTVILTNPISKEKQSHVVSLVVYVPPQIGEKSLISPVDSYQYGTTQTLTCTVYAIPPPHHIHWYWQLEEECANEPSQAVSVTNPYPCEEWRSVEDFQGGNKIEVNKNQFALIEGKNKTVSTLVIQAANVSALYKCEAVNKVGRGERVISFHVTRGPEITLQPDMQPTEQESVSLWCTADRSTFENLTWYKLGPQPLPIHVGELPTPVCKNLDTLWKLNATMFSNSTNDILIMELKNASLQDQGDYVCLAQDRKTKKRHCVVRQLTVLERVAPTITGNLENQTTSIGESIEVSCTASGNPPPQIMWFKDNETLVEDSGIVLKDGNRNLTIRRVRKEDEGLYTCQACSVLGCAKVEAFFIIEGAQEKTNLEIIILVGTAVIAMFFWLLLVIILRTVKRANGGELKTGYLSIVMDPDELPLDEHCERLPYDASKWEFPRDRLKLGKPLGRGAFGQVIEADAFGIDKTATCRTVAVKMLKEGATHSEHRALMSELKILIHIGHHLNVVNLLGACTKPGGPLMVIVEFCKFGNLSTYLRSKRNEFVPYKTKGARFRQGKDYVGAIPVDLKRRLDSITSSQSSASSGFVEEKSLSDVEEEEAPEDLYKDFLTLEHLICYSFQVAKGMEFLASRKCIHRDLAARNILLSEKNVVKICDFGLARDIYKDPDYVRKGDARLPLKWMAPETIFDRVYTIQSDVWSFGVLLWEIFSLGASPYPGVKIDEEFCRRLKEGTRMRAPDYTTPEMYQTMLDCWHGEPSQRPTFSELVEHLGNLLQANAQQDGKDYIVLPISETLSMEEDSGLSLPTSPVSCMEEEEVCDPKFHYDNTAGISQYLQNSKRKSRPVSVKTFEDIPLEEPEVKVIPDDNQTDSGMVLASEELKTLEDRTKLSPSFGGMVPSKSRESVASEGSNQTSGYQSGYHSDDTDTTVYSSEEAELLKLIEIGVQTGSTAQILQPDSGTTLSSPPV
Sequence of Ephrin type-A receptor 2 (P29317 whole entry, the tested form may be a part): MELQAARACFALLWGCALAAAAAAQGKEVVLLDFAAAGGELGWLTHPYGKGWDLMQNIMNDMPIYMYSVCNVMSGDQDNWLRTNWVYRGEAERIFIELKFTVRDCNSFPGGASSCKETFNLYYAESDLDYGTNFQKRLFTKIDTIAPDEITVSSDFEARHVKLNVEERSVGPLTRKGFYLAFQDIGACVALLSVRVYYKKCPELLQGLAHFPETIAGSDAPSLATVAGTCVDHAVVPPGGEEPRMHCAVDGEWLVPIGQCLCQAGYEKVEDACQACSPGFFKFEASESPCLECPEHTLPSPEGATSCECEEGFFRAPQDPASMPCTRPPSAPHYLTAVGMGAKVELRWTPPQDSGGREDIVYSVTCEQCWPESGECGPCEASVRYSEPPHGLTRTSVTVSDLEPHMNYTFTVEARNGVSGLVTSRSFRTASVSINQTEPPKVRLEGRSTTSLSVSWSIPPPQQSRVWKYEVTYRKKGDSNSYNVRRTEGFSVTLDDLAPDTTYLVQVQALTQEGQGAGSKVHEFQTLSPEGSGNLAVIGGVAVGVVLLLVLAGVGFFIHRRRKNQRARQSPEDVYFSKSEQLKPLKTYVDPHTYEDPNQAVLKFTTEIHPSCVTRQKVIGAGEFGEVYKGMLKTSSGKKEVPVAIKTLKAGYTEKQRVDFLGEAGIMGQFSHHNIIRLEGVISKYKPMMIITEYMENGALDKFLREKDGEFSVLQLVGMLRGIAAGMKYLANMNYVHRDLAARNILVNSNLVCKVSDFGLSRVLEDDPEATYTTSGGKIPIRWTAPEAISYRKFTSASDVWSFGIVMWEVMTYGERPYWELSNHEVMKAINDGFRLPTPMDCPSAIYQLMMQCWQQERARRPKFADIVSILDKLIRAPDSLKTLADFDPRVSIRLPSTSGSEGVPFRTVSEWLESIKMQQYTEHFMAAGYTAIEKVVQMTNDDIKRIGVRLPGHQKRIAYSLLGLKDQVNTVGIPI

Row | SMILES | IC50 (Ephrin type-A receptor 2) | IC50 [1] | IC50 (Ephrin type-B receptor 4)
1 | CCN1CCN(C(C)=O)CC1COc1cc2ncnc(Nc3ccc(Cl)c(Cl)c3)c2cc1OC (stereo unspecified) | 50 to 1000 nM | 1000 to 20000 nM | < 50 nM
2 | COc1cc2c(Nc3ccc(N4CCN(C)CC4)c(F)c3)ncnc2cc1O[C@H]1CO[C@H]2[C@@H]1OC[C@@H]2F | – | 1000 to 20000 nM | 1000 to 20000 nM
3 | COc1cc2c(Nc3ccc(Cl)c(Cl)c3)ncnc2cc1OCC1CN(CC2CCCCC2)CCO1 (stereo unspecified) | 50 to 1000 nM | 50 to 1000 nM | 50 to 1000 nM
4 | COc1cc2c(Nc3ccc(Cl)c(Cl)c3)ncnc2cc1OCC1CN(Cc2ccc(F)cc2)CCO1 (stereo unspecified) | 50 to 1000 nM | 50 to 1000 nM | 50 to 1000 nM
5 | COc1cc2c(Nc3ccc(Br)cc3Br)ncnc2cc1OCC1CN(C)CCO1 (stereo unspecified) | 50 to 1000 nM | 50 to 1000 nM | 50 to 1000 nM
6 | CCC#CCN1CCOC(COc2cc3ncnc(Nc4ccc(Cl)c(Cl)c4)c3cc2OC)C1 (stereo unspecified) | 50 to 1000 nM | 50 to 1000 nM | 50 to 1000 nM
7 | C#CCN1CCOC(COc2cc3ncnc(Nc4ccc(Cl)c(Cl)c4)c3cc2OC)C1 (stereo unspecified) | < 50 nM | < 50 nM | < 50 nM
8 | COc1cc2c(Nc3ccc(Cl)c(Cl)c3)ncnc2cc1OCC1CN(c2ccncc2)CCO1 (stereo unspecified) | < 50 nM | < 50 nM | < 50 nM
9 | C=CCCCN1CCOC(COc2cc3ncnc(Nc4ccc(Cl)c(Cl)c4)c3cc2OC)C1 (stereo unspecified) | 50 to 1000 nM | < 50 nM | < 50 nM
10 | COc1cc2c(Nc3ccc(Cl)c(Cl)c3)ncnc2cc1OCC1CN(CCC2CCCCC2)CCO1 (stereo unspecified) | 50 to 1000 nM | 50 to 1000 nM | 50 to 1000 nM
11 | COc1cc2c(Nc3ccc(Cl)cc3F)ncnc2cc1OCC1CN(C)CCO1 (stereo unspecified) | 50 to 1000 nM | < 50 nM | 50 to 1000 nM
12 | CCN1CCN(C)CC1COc1cc2ncnc(Nc3ccc(Cl)c(Cl)c3)c2cc1OC (stereo unspecified) | 50 to 1000 nM | 1000 to 20000 nM | 50 to 1000 nM
13 | COc1cc2c(Nc3ccc(Cl)c(Cl)c3)ncnc2cc1OCc1csc(CN(C)C)n1 | – | – | 50 to 1000 nM
14 | COc1cc2c(Nc3ccc(Cl)c(Cl)c3)ncnc2cc1OCC1CCCCO1 (stereo unspecified) | – | – | < 50 nM
15 | COc1cc2c(Nc3ccc(Cl)c(Cl)c3)ncnc2cc1OCC1CN(CCC2OCCO2)CCO1 (stereo unspecified) | 50 to 1000 nM | 50 to 1000 nM | < 50 nM
16 | C=CCCCCCCN1CCOC(COc2cc3ncnc(Nc4ccc(Cl)c(Cl)c4)c3cc2OC)C1 (stereo unspecified) | 50 to 1000 nM | 50 to 1000 nM | 50 to 1000 nM
17 | COc1cc2c(Nc3ccc(Cl)c(Cl)c3)ncnc2cc1OCC1CN(C(C)=O)CCO1 (stereo unspecified) | 50 to 1000 nM | 50 to 1000 nM | < 50 nM
18 | COc1ccc(-c2nc(COc3cc4ncnc(Nc5ccc(Cl)c(Cl)c5)c4cc3OC)no2)cc1 | 1000 to 20000 nM | – | –

Other lines, results leading:

Row | IC50 (Ephrin type-A receptor 2) | IC50 [1] | IC50 (Ephrin type-B receptor 4) | SMILES
19 | 50 to 1000 nM | 50 to 1000 nM | 50 to 1000 nM | COc1cc2c(Nc3ccc(F)c(Cl)c3)ncnc2cc1OCC1CN(C)CCO1 (stereo unspecified)
20 | 50 to 1000 nM | 50 to 1000 nM | 50 to 1000 nM | COc1cc2c(Nc3ccc(Cl)c(Cl)c3)ncnc2cc1OCC1CN(CCO)CCO1 (stereo unspecified)
21 | < 50 nM | 50 to 1000 nM | < 50 nM | COc1cc2c(Nc3cccc(Cl)c3C)ncnc2cc1OCC1CN(C)CCO1 (stereo unspecified)
22 | < 50 nM | < 50 nM | < 50 nM | COc1cc2c(Nc3ccc(Cl)c(Cl)c3)ncnc2cc1OCC1CN(CC2CC2)CCO1 (stereo unspecified)
23 | < 50 nM | < 50 nM | < 50 nM | COc1cc2c(Nc3ccc(Cl)c(Cl)c3)ncnc2cc1OCC1CN(CCCC#N)CCO1 (stereo unspecified)
24 | 50 to 1000 nM | 50 to 1000 nM | 50 to 1000 nM | COc1cc2c(Nc3ccc(Cl)c(Cl)c3)ncnc2cc1OCc1csc(CN2CCCC2)n1
25 | 50 to 1000 nM | 50 to 1000 nM | 50 to 1000 nM | COc1cc2c(Nc3ccc(Cl)c(Cl)c3)ncnc2cc1OCc1nc(CS(=O)(=O)c2ccccn2)no1
26 | 50 to 1000 nM | 50 to 1000 nM | 50 to 1000 nM | COc1cc2c(Nc3ccc(Cl)cc3Cl)ncnc2cc1OCC1CN(C)CCO1 (stereo unspecified)
27 | 50 to 1000 nM | 50 to 1000 nM | 50 to 1000 nM | COc1cc2c(Nc3cccc(Br)c3C)ncnc2cc1OCC1CN(C)CCO1 (stereo unspecified)
28 | 50 to 1000 nM | < 50 nM | 50 to 1000 nM | COc1cc2c(Nc3ccc(Cl)c(Cl)c3)ncnc2cc1OCC1CN(Cc2ccccn2)CCO1 (stereo unspecified)
29 | 50 to 1000 nM | 50 to 1000 nM | 50 to 1000 nM | CCC(CC)CN1CCOC(COc2cc3ncnc(Nc4ccc(Cl)c(Cl)c4)c3cc2OC)C1 (stereo unspecified)
30 | – | < 50 nM | < 50 nM | COc1cc2c(Nc3ccc(Cl)c(Cl)c3)ncnc2cc1OCC1CN(CC2CCCCO2)CCO1 (stereo unspecified)
31 | 50 to 1000 nM | 50 to 1000 nM | < 50 nM | COc1cc2c(Nc3ccc(Cl)c(Cl)c3)ncnc2cc1OCC1CN(C2CCOCC2)CCO1 (stereo unspecified)
32 | 50 to 1000 nM | < 50 nM | 50 to 1000 nM | COc1cc2c(Nc3ccc(Cl)c(Cl)c3)ncnc2cc1OCC1CN(C2CCC2)CCO1 (stereo unspecified)
33 | 50 to 1000 nM | 50 to 1000 nM | 50 to 1000 nM | CC#CCN1CCOC(COc2cc3ncnc(Nc4ccc(Cl)c(Cl)c4)c3cc2OC)C1 (stereo unspecified)
34 | 50 to 1000 nM | 50 to 1000 nM | < 50 nM | CCCN1CCOC(COc2cc3ncnc(Nc4ccc(Cl)c(Cl)c4)c3cc2OC)C1 (stereo unspecified)
35 | 50 to 1000 nM | 1000 to 20000 nM | 50 to 1000 nM | COc1cc(Nc2ncnc3cc(OCC4CN(C)CCO4)c(OC)cc23)c(OC)cc1Cl (stereo unspecified)
36 | 50 to 1000 nM | 50 to 1000 nM | 50 to 1000 nM | COc1cc2c(Nc3cc(Cl)ccc3F)ncnc2cc1OCC1CN(C)CCO1 (stereo unspecified)
37 | 50 to 1000 nM | < 50 nM | < 50 nM | COc1cc2c(Nc3ccc(Cl)c(Cl)c3)ncnc2cc1OCC1CN(CCCCCCO)CCO1 (stereo unspecified)
38 | 1000 to 20000 nM | 1000 to 20000 nM | 1000 to 20000 nM | COc1cc2c(Nc3ccc(Cl)c(Cl)c3)ncnc2cc1OCc1cc(F)cc2c1OCOC2
39 | 50 to 1000 nM | 50 to 1000 nM | 50 to 1000 nM | COc1cc2c(Nc3ccc(Cl)c(Cl)c3)ncnc2cc1OCc1noc(C2CCCN2C)n1 (stereo unspecified)
40 | – | < 50 nM | < 50 nM | COCCOc1cc2c(Nc3ccc(Cl)c(Cl)c3)ncnc2cc1OCC1CNCCO1 (stereo unspecified)
41 | 50 to 1000 nM | < 50 nM | 50 to 1000 nM | COc1cc2c(Nc3ccc(Br)cc3F)ncnc2cc1OCC1CN(C)CCO1 (stereo unspecified)
42 | – | – | < 50 nM | COc1cc2c(Nc3ccc(Cl)c(Cl)c3)ncnc2cc1OCc1csc(CN2CCN(C)CC2)n1
43 | – | – | 50 to 1000 nM | COc1cc2c(Nc3ccc(Cl)c(Cl)c3)ncnc2cc1OCc1csc(CN2CCOCC2)n1
44 | 50 to 1000 nM | 50 to 1000 nM | 50 to 1000 nM | COC(=O)CCCCN1CCOC(COc2cc3ncnc(Nc4ccc(Cl)c(Cl)c4)c3cc2OC)C1 (stereo unspecified)
45 | 50 to 1000 nM | – | < 50 nM | COc1cc2c(Nc3ccc(Cl)c(Cl)c3)ncnc2cc1OC[C@@H]1O[C@@H](OC)[C@@H](O)[C@H](O)[C@H]1O (single isomer, unassigned)

Source: ChEMBL document CHEMBL3882729, “Receptor-type kinase modulators and methods of use” (2009)
